Test results as given in patent US20080004266A1, “Method for treating proliferative disorders associated with protooncogene products” (priority 2006, published 2008).
pIC50: −log10 of the molar value.

Legend:
A375 cells (B-raf V600E) = test: Cell survival in A375 melanoma cells (Cell Counting Kit-8); assay type: cell-based, human; conditions: Homo sapiens, A-375, 72 hours
Experimental: Human melanoma cell line, A375 (2×10^6 cells), which contains the V600E mutation in the B-raf protein that confers constitutive […] kinase activity, was obtained from American Type Culture Collection. A375 cells (20,000 cells/well) were cultured in 96-well plates and maintained at 37° C. for several hours. The cells were incubated at 37° C. for 72 hours with various concentrations of compound 226, 17AAG or 17DMAG. 17AAG and 17DMAG are Hsp90 inhibitors that are currently in clinical trials and are used here as positive controls for Hsp90 inhibition. Cell survival was measured with Cell Counting Kit-8 (Dojindo Laboratories, Cat # CK04).

[1] = tested on: EGFR (T790M and L858R mutations); test: Degradation of EGFR in NCI-H1975 cells (Western blot); assay type: cell-based, human; conditions: 18 hours, 1.0 μM, 0.5 μM and 0.1 μM
Experimental: Non-small cell lung cancer cell line, NCI-H1975 (2×10^6 cells), which harbors both the T790M and the L858R mutations in EGFR and is resistant to erlotinib, was obtained from American Type Culture Collection and was treated with either Compound 226 (1.0 μM, 0.5 μM and 0.1 μM) or 17-AAG (1.0 μM, 0.5 μM and 0.1 μM). After 18 hours, the cells were lysed with 1× lysis buffer and a western blot was perform, and phosphorylated and total EGFR was detected with anti-EGFR antibodies.

[2] = tested on: Karpas-299 cells (NPM-ALK); test: Cell survival in Karpas-299 cells (Cell Counting Kit-8); assay type: cell-based, human; conditions: Homo sapiens, 72 hours
Experimental: Growth of this tumor cell line is dependent upon the expression of the NPM-ALK fusion protein. Karpas-299 cells (20,000 cells/well) were cultured in 96-well plates and maintained at 37° C. for several hours. The cells were incubated at 37° C. for 72 hours with various concentrations of compound 226 of the invention, 17AAG, and 17DMAG. 17AAG and 17DMAG are Hsp90 inhibitors that are currently in clinical trials and are used here as positive controls for Hsp90 inhibition. Cell survival was measured with Cell Counting Kit-8 (Dojindo Laboratories, Cat # CK04).

[3] = tested on: human tumor cell line Kasumi-1; test: Kasumi-1 (c-Kit N822K) SCID mouse xenograft model; assay type: in vivo, human (xenograft in SCID mouse); conditions: for % T/C value: SCID mice
Description: The human acute myelogenous leukemia cell line, Kasumi-1 (ATCC #CRL-2724), was obtained from the American Type Culture Collection (ATCC; Manassas, Va., USA). Growth of this tumor cell line is dependent upon the expression of an activated form of the c-Kit tyrosine kinase receptor carrying a N822K mutation (A. Beghini, et al., Exp. Hematol. 33:682-688, 2005). […] FBS was obtained from ATCC and all other reagents were obtained from Invitrogen Corp. (Carlsbad, Calif., USA). Cells that had been cryopreserved in liquid nitrogen were rapidly thawed at 37° C. and transferred to a tissue culture flask containing growth media and then incubated at 37° C. in a 5% CO2 incubator. To expand the cell line, cultures were passaged 1:2 to a density of 5×10 (6) cells/ml every three days by adding an equal volume of fresh growth media. When the flasks reached a density of approximately 10×10 (6) cells/ml, the above passaging process was repeated until sufficient cells had been obtained for implantation into mice.
Seven to eight week old, female CB17/Icr-Prkdc^scid/Crl (SCID) mice were obtained from Charles River Laboratories (Wilmington, Mass., USA). […]
Tumors were then permitted to develop in vivo until the majority reached 100-200 mm^3 in tumor volume, which typically required 4-5 weeks following implantation. […] Tumor volumes (V) were calculated by caliper measurement of the width (W), length (L) and thickness (T) of tumors using the following formula: V=0.5236×(L×W×T). Animals were randomized into treatment groups so that the median tumor volumes of each group were similar at the start of dosing. % T/C values, as a measure of efficacy, were determined as follows: • (vi) If ΔT>0: % T/C=(ΔT/ΔC)×100 • (vii) If ΔT<0: % T/C=(ΔT/T0)×100 • (viii) ΔT=Change in median tumor volume between start of dosing and the end of study. • (ix) ΔC=Change in median tumor volume between start of dosing and the end of study. • (x) T0=Median tumor volume at start of dosing. […]

[4] = tested on: Kasumi-1 cells (c-Kit N822K); test: Cell survival in Kasumi-1 cells (Cell Counting Kit-8); assay type: cell-based, human; conditions: Homo sapiens, 72 hours
Experimental: Kasumi-1 cells (20,000 cells/well) were cultured in 96-well plates and maintained at 37° C. for several hours. […] 17AAG and DMAG are Hsp90 inhibitors that are currently in clinical trials and are used here as positive controls for Hsp90 inhibition. […] Cell survival was measured with Cell Counting Kit-8 (Dojindo Laboratories, Cat # CK04).

## CC(C)c1cc(-c2nnc(O)n2-c2ccc3c(ccn3C)c2)c(O)cc1O [Compound 226, 3-(2,4-di-hydroxy-5-isopropyl-phenyl)-4-(1-methyl-indol-5-yl)-5-hydroxy-[1,2,4] triazole]
A375 cells (B-raf V600E)
  pIC50: 8.40
[1]
  degradation of phosphorylated and total EGFR: induced degradation phosphorylated and total EGFR more potently than 17AAG
[2]
  pIC50: 8.00
[3]; 25 mg/kg i.v. 5 times per week, day 50
  average bodyweight gain relative to the start of the study: +0.7% (+/−2.0 SEM)
[3]; 25 mg/kg i.v. 5 times per week, 14 doses, day 50
  % T/C value: −15.3%
[3]; single dose of 25 mg/kg on day 30, observed day 33 (3 days after the first dose)
  % T/C value: −4.1%
[4]
  pIC50: 8.40
